Results: ChEMBL document CHEMBL4371024, “Synthesis and characterization of pyridoxine, nicotine and nicotinamide salts of dithiophosphoric acids as antibacterial agents against resistant wound infection” (Bioorg Med Chem, 2019)
≈ marks a conversion by molar mass, not a printed value.

Columns and labels:
Type in all cases: functional
Staphylococcus aureus = experiment: Antibacterial activity against Staphylococcus aureus ATCC 29213 after 24 hrs by broth dilution method; conditions: ATCC 29213, 24 h
Pseudomonas aeruginosa = experiment: Antibacterial activity against Pseudomonas aeruginosa ATCC 27853 after 24 hrs by broth dilution method; conditions: ATCC 27853, 24 h
[1] = system: Staphylococcus epidermidis; experiment: Antibacterial activity against Staphylococcus epidermidis after 24 hrs by broth dilution method
Klebsiella pneumoniae = experiment: Antibacterial activity against Klebsiella pneumoniae after 24 hrs by broth dilution method

| Compound | MIC (Staphylococcus aureus) | MIC (Pseudomonas aeruginosa) | MIC [1] | MIC (Klebsiella pneumoniae) |
| --- | --- | --- | --- | --- |
| Cc1ccc(C(C)C)c(OP(=S)(S)Oc2cc(C)ccc2C(C)C)c1.Cc1ncc(CO)c(CO)c1O | 530 µM | 530 µM | 530 µM | 530 µM |
| CC1(C)[C@H]2CC[C@](C)(C2)[C@H]1OP(=S)(S)O[C@H]1C(C)(C)[C@H]2CC[C@]1(C)C2.Cc1ncc(CO)c(CO)c1O | 20 µM | 320 µM | 20 µM | 320 µM |
| CCCCOP(=S)(S)OCCCC.NC(=O)c1cccnc1 | 4130 µM | 4130 µM | 4130 µM | 4130 µM |
| Cc1ccc(C(C)C)c(OP(=S)(S)Oc2cc(C)ccc2C(C)C)c1 | 3800 µM (≈ 1500 µg/mL) | 3800 µM (≈ 1500 µg/mL) | 3800 µM (≈ 1500 µg/mL) | 3800 µM (≈ 1500 µg/mL) |
| CC1(C)[C@H]2CC[C@]1(C)[C@H](OP(=S)(S)O[C@@H]1C[C@@H]3CC[C@@]1(C)C3(C)C)C2.CN1CCC[C@H]1c1cccnc1 | 20 µM | 320 µM | 20 µM | 320 µM |
| C[C@@H]1[C@@H](OP(=S)(S)O[C@H]2C[C@H]3C[C@@H]([C@@H]2C)C3(C)C)C[C@H]2C[C@@H]1C2(C)C.Cc1ncc(CO)c(CO)c1O | 20 µM | 320 µM | 20 µM | 320 µM |
| CC(C)[C@H]1CC[C@H](C)C[C@@H]1OP(=S)(S)O[C@H]1C[C@@H](C)CC[C@@H]1C(C)C.CN1CCC[C@H]1c1cccnc1 | 20 µM | 320 µM | 20 µM | 320 µM |
| CN1CCC[C@H]1c1cccnc1.Cc1ccc(C(C)C)c(OP(=S)(S)Oc2cc(C)ccc2C(C)C)c1 | 320 µM | 320 µM | 320 µM | 2530 µM |
| CC(C)[C@H]1CC[C@H](C)C[C@@H]1OP(=S)(S)O[C@H]1C[C@@H](C)CC[C@@H]1C(C)C.Cc1ncc(CO)c(CO)c1O | 40 µM | 320 µM | 10 µM | 320 µM |
| CN[C@H](CC(C)C)C(=O)N[C@H]1C(=O)N[C@@H](CC(N)=O)C(=O)N[C@H]2C(=O)N[C@H]3C(=O)N[C@H](C(=O)N[C@H](C(=O)O)c4cc(O)cc(O)c4-c4cc3ccc4O)[C@H](O)c3ccc(c(Cl)c3)Oc3cc2cc(c3O[C@@H]2O[C@H](CO)[C@@H](O)[C@H](O)[C@H]2O[C@H]2C[C@](C)(N)[C@H](O)[C@H](C)O2)Oc2ccc(cc2Cl)[C@H]1O [VANCOMYCIN] | 1.4 µM (≈ 2.03 µg/mL) | > 5000 µM | 0.7 µM (≈ 1.01 µg/mL) | > 5000 µM |
| CCCCOP(=S)(S)OCCCC.CN1CCC[C@H]1c1cccnc1 | 1810 µM | 3630 µM | 1810 µM | 3630 µM |
